# Source: PMC7006677 (Pharmacological reports : PR, 2020)
# Tests used:
# Assay type in all cases: cell-based
# [1] = biological target: T1, GABAA receptor (α1β3γ2L), β3 subunit (Homo sapiens, UniProt P14867+P18507+P28472); assay: two-electrode voltage clamp
# [2] = biological target: T1, GABAA receptor (α1β3γ2L), β3 subunit; assay: two-electrode voltage clamp; remark: listed apart in the source
# [3] = biological target: T1, GABAA receptor (α1β3γ2L), β3 subunit; assay: two-electrode voltage clamp in oocytes
# T1 sequence (P28472 26-473): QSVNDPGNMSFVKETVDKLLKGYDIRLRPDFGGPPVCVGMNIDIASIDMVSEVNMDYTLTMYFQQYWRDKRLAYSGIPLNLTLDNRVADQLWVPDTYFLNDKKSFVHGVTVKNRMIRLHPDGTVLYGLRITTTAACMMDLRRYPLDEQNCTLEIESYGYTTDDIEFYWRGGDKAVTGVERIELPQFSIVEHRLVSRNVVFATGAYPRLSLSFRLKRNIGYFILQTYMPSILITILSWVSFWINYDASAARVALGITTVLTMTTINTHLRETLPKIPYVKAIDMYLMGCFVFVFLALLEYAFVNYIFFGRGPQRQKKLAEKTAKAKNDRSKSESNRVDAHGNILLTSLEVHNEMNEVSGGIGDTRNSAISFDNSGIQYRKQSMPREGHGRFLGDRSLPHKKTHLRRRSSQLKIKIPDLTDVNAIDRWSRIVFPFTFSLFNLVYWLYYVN
# T1 sequence (P14867 28-456): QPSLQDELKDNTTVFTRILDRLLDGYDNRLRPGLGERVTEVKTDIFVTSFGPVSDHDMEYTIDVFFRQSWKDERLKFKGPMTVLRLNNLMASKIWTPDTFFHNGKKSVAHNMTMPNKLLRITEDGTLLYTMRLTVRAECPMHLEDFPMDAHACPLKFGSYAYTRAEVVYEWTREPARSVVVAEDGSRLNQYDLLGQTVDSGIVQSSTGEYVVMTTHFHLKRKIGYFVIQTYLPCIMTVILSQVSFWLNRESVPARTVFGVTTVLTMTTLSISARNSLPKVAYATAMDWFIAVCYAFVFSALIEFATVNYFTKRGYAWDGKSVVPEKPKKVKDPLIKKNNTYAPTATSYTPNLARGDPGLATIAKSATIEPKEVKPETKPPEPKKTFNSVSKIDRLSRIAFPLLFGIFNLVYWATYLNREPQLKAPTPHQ
# T1 sequence (P18507 40-475): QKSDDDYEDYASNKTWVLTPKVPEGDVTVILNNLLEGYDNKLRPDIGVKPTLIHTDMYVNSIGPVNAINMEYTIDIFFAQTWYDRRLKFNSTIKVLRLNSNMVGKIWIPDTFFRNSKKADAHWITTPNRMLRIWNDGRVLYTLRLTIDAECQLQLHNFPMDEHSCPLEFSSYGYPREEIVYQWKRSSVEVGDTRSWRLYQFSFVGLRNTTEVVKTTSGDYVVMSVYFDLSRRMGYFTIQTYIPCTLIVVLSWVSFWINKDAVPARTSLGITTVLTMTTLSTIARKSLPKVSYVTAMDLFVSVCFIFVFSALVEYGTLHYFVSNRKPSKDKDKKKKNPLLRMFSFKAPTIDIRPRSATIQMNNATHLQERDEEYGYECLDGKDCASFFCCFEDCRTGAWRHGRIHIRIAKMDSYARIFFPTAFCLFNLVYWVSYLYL
Compound,"two-electrode voltage clamp; potentiation of EC5 GABA currents, reversed by naph [1]",also measured
"OCC(Cl)(Cl)Cl [2,2,2-Trichloroethanol]",~ 2 mM,
CCOC(=O)Nc1ccc(NCc2c(C)cc(C)cc2C)cc1N [AA29504],~ 1 μM,
CC(=O)[C@H]1CC[C@H]2[C@@H]3CC[C@H]4C[C@H](O)CC[C@]4(C)[C@H]3C(=O)C[C@]12C [Alphaxalone],~ 2 μM,
FC(F)OC(Cl)C(F)(F)F (stereo not shown) [Isoflurane],~ 1.5 mM,
Cl/C(=C\n1cncn1)c1ccc(Cl)cc1Cl [Loreclezole],~ 10 μM,
NCc1cc(=O)[nH]o1 [Muscimol],,"two-electrode voltage clamp; potentiation of EC5 GABA currents, not reversed by [2]: ~ 3 μM"
naphthalene-etomidate,,IC50 [3]: 76 µM
